Test results: patent US9096500B2, “Acyl sulfonamide compounds” (Pfizer Limited, priority 2010, dated 2015)
Structures can show the parent of a compound that is named as a salt.

Target: T1, Nav1.7 (or SCN9A) channel (Homo sapiens, UniProt Q15858)
T1 construct: expressed in transfected cells
Assay: Nav1.7 (hSCN9A) electrophysiology assay, PatchXpress platform
Type: cell-based
Details: estimated IC50 from single point electrophysiology data, HEK cells stably expressing hSCN9A, held at V1/2 of inactivation, read-out: Nav1.7 EIC50
Procedure: The ability of the compounds of formula (I) to block the Nav1.7 (or SCN9A) channel were measured using the assay described below.
Human Embryonic Kidney (HEK) cells were transfected with an hSCN9A construct using lipofectamine reagent (Invitrogen), using standard techniques. Cells stably expressing the hSCN9A constructs were identified by their resistance to G-418 (400 μg/ml). Clones were screened for expression using the whole-cell voltage-clamp technique.
HEK cells stably transfected with hSCN9A were maintained in DMEM medium supplemented with 10% heat-inactivated fetal bovine serum and 400 μg/ml G-418 in an incubator at 37° C. with a humidified atmosphere of 10% CO2. For HTS, cells were harvested from flasks by trypsinization and replated in an appropriate multi-well plate (typically 96 or 384 wells/plate) such that confluence would be achieved within 24 hours of plating. For electrophysiological studies, cells were removed from the culture flask by brief trypsinization and re-plated at low density onto glass cover slips. Cells were typically used for electrophysiological experiments within 24 to 72 hours after plating.
Cover slips containing HEK cells expressing hSCN9A were placed in a bath on the stage of an inverted microscope and perfused (approximately 1 ml/minutes) with extracellular solution of the following composition: 138 mM NaCl, 2 mM CaCl2, 5.4 mM KCl, 1 mM MgCl2, 10 mM glucose, and 10 mM HEPES, pH 7.4, with NaOH. […] The osmolarity of the extracellular and intracellular solutions was 300 mOsm/kg and 295 mOsm/kg, respectively. All recordings were made at room temperature (22-24° C.) using AXOPATCH 200B amplifiers and PCLAMP software (Axon Instruments, Burlingame, Calif.).
hSCN9A currents in HEK cells were measured using the whole-cell configuration of the patch-clamp technique (Hamill et al., 1981). Uncompensated series resistance was typically 2 to 5 mega ohms and >85% series resistance compensation was routinely achieved. […] Current records were acquired at 20 to 50 KHz and filtered at 5 to 10 KHz.
HEK cells stably transfected with hSCN9A were viewed under Hoffman contrast optics and placed in front of an array of flow pipes emitting either control or compound-containing extracellular solutions. All compounds were dissolved in dimethyl sulfoxide to make 10 mM stock solutions, which were then diluted into extracellular solution to attain the final concentrations desired. […] The voltage-dependence of inactivation was determined by applying a series of depolarizing prepulses (8 sec long in 10 mV increments) from a negative holding potential. The voltage was then immediately stepped to 0 mV to assess the magnitude of the sodium current. Currents elicited at 0 mV were plotted as a function of prepulse potential to allow estimation of the voltage at which 50% of the channels were inactivated (midpoint of inactivation or V1/2). Compounds were tested for their ability to inhibit hSCN9A sodium channels by activating the channel with a 20 msec voltage step to 0 mV following an 8 second conditioning prepulse to the empirically determined V1/2. Compound effect (% inhibition) was determined by difference in current amplitude before and after application of test compounds. […] Inhibition values <20% and >80% were excluded from the calculation.
Electrophysiological assays were conducted with PatchXpress 7000 hardware and associated software (Molecular Devices Corp). All assay buffers and solutions were identical to those used in conventional whole-cell voltage clamp experiments described above. hSCN9A cells were grown as above to 50%-80% confluency and harvested by trypsinization. Trypsinized cells were washed and resuspended in extracellular buffer at a concentration of 1×10^6 cells/ml. The onboard liquid handling facility of the PatchXpress was used for dispensing cells and application of test compounds.

T1 sequence (Q15858 whole entry): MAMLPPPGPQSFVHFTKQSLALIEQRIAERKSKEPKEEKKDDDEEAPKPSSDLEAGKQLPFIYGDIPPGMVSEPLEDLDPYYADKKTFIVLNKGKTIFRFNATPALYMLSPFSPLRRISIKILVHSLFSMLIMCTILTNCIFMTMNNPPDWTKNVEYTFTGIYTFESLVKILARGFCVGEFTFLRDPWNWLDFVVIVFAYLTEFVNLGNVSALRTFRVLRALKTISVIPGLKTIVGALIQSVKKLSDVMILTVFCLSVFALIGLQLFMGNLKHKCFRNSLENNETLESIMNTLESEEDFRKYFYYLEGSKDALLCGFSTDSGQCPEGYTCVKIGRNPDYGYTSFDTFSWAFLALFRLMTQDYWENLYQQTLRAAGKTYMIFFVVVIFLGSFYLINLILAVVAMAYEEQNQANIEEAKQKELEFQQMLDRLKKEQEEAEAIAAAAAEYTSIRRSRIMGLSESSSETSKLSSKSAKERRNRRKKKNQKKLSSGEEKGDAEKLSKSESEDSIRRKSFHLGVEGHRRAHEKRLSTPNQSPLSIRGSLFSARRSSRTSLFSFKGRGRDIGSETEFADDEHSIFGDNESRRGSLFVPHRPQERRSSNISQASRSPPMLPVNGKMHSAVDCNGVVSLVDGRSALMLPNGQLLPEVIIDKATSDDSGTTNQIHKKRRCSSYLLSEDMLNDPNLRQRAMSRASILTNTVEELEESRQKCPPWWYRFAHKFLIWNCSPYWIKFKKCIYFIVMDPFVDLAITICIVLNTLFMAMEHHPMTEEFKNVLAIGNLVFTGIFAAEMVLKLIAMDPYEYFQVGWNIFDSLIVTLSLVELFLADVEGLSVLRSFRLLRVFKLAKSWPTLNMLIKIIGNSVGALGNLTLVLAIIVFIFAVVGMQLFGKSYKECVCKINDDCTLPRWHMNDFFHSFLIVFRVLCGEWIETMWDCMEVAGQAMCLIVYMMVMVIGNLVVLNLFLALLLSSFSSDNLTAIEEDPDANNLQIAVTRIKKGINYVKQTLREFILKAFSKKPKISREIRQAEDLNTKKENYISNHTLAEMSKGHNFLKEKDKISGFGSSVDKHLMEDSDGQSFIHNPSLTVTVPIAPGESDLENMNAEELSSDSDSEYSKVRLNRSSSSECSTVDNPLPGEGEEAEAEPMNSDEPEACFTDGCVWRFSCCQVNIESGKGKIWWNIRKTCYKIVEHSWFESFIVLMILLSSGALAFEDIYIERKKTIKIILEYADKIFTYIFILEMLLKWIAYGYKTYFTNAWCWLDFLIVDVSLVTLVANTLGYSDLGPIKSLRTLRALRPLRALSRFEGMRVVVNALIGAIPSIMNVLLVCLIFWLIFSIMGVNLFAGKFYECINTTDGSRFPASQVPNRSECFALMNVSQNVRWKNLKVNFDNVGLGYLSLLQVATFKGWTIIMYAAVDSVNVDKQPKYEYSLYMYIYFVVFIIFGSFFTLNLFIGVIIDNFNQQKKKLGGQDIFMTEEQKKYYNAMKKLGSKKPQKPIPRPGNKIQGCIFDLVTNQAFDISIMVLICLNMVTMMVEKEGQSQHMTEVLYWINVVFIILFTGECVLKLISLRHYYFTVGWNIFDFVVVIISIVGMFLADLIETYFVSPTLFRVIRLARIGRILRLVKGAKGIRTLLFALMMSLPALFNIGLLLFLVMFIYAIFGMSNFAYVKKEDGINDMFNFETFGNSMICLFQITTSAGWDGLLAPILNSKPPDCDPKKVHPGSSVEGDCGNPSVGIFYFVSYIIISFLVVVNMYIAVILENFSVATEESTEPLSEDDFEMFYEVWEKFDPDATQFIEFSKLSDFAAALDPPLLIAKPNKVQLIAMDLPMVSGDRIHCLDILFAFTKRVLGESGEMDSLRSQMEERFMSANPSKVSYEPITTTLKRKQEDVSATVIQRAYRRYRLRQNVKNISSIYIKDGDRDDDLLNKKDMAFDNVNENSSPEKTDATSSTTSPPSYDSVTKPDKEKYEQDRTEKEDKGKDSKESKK

SMILES	IC50 [nM]
CS(=O)(=O)NC(=O)c1cc(Cl)c(COc2ccc(OC(F)F)c(Cl)c2)cc1F [Example 61, 5-Chloro-4-{[3-chloro-4-(difluoromethoxy)phenoxy]methyl}-2-fluoro-N-(methylsulfonyl)benzamide]	< 300
CS(=O)(=O)NC(=O)c1cc(Cl)c(COc2ccc(Cl)c(OC(F)F)c2)cc1F [Example 62, 5-Chloro-4-{[4-chloro-3-(difluoromethoxy)phenoxy]methyl}-2-fluoro-N-(methylsulfonyl)benzamide]	< 3000
COc1cc(COc2cc(F)c(C(=O)NS(C)(=O)=O)cc2F)ccc1Cl [Example 66, 4-(4-Chloro-3-methoxybenzyloxy)-2,5-difluoro-N-(methylsulfonyl)benzamide]	> 1000
CS(=O)(=O)NC(=O)c1cc(F)c(OCc2ccc(Cl)c(C#N)c2)cc1F [Example 67, 4-(4-Chloro-3-cyanobenzyloxy)-2,5-difluoro-N-(methylsulfonyl)benzamide Diethylamine salt]	9200
COc1ccc(COc2cc(F)c(C(=O)NS(C)(=O)=O)cc2Cl)cc1 [Example 71, 5-chloro-2-fluoro-4-[(4-methoxybenzyl)oxy]-N-(methylsulfonyl)benzamide]	3900
CS(=O)(=O)NC(=O)c1ccc(OCc2ccc(Cl)cc2)c(Cl)c1 [Example 73, 3-chloro-4-[(4-chlorobenzyl)oxy]-N-(methylsulfonyl)benzamide]	6400
CS(=O)(=O)NC(=O)c1ccc(OCc2ccccc2OC(F)(F)F)c(C#N)c1 [Example 76, 3-cyano-N-(methylsulfonyl)-4-{[2-(trifluoromethoxy)benzyl]oxy}benzamide]	10000
CS(=O)(=O)NC(=O)c1ccc(OCc2ccc(Cl)cc2)c(C#N)c1 [Example 77, 4-[(4-chlorobenzyl)oxy]-3-cyano-N-(methylsulfonyl)benzamide]	> 3000
CS(=O)(=O)NC(=O)c1cc(Cl)c(OCc2ccccc2Cl)cc1F [Example 78, 5-chloro-4-[(2-chlorobenzyl)oxy]-2-fluoro-N-(methylsulfonyl)benzamide]	390
CS(=O)(=O)NC(=O)c1cc(Cl)c(OCc2ccc(-c3ccccc3)cc2)cc1F [Example 83, 4-(biphenyl-4-ylmethoxy)-5-chloro-2-fluoro-N-(methylsulfonyl)benzamide]	620
CS(=O)(=O)NC(=O)c1cc(Cl)c(OCc2cccc(Cl)c2)cc1F [Example 86, 5-chloro-4-[(3-chlorobenzyl)oxy]-2-fluoro-N-(methylsulfonyl)benzamide]	580
CS(=O)(=O)NC(=O)c1cc(Cl)c(OCc2ccccc2-c2ccccc2)cc1F [Example 87, 4-(biphenyl-2-ylmethoxy)-5-chloro-2-fluoro-N-(methylsulfonyl)benzamide]	640
CS(=O)(=O)NC(=O)c1ccc(OCc2cccc(OC(F)(F)F)c2)cc1 [Example 92, N-(methylsulfonyl)-4-{[3-(trifluoromethoxy)benzyl]oxy}benzamide]	590
COc1cc(Cl)cc(OCc2cc(F)c(C(=O)NS(C)(=O)=O)cc2F)c1 [Example 98, 4-[(3-chloro-5-methoxyphenoxy)methyl]-2,5-difluoro-N-(methylsulfonyl)benzamide]	140

Second part, the molecule after the results:

IC50 [nM]	SMILES
14	CS(=O)(=O)NC(=O)c1cc(Cl)c(OCc2ccc(Cl)c(C(F)(F)F)c2)cc1F [Example 59, 5-Chloro-4-(4-chloro-3-(trifluoromethyl)benzyloxy)-2-fluoro-N-(methylsulfonyl)benzamide]
29	CS(=O)(=O)NC(=O)c1cc(Cl)c(COc2ccc(OC(F)(F)F)c(Cl)c2)cc1F [Example 60, 5-Chloro-4-((3-chloro-4-(trifluoromethoxy)phenoxy)methyl)-2-fluoro-N-(methylsulfonyl)benzamide]
35	CS(=O)(=O)NC(=O)c1cc(Cl)c(COc2ccc(Cl)c(OC(F)(F)F)c2)cc1F [Example 63, 5-Chloro-4-{[4-chloro-3-(trifluoromethoxy)phenoxy]methyl}-2-fluoro-N-(methylsulfonyl)benzamide]
> 3000	COc1cc(Cl)ccc1OCc1ccc(C(=O)NS(C)(=O)=O)cc1 [Example 64, 4-[(4-Chloro-2-methoxyphenoxy)methyl]-N-(methylsulfonyl)benzamide]
80	CS(=O)(=O)NC(=O)c1ccc(COc2ccc(C(F)(F)F)c(Cl)c2)cc1 [Example 65, 4-{[3-Chloro-4-(trifluoromethyl)phenoxy]methyl}-N-(methylsulfonyl)benzamide]
9800	COc1ccc(COc2cc(F)c(C(=O)NS(C)(=O)=O)cc2F)cc1Cl [Example 68, 4-(3-Chloro-4-methoxybenzyloxy)-2,5-difluoro-N-(methylsulfonyl)benzamide]
240	CS(=O)(=O)NC(=O)c1ccc(COc2ccc(Cl)c(Cl)c2)c(C#N)c1 [Example 69, 5-Cyano-4-((3,4-dichlorophenoxy)methyl)-N-(methylsulfonyl)benzamide Diethylamine salt]
160	CS(=O)(=O)NC(=O)c1cc(F)c(OCc2ccc(Cl)c(C(F)(F)F)c2)cc1F [Example 70, 4-(4-Chloro-3-(trifluoromethyl)benzyloxy)-2,5-difluoro-N-(methylsulfonyl) benzamide]
9700	CS(=O)(=O)NC(=O)c1ccc(OCc2cccc(Cl)c2)c(C#N)c1 [Example 74, 4-[(3-chlorobenzyl)oxy]-3-cyano-N-(methylsulfonyl)benzamide]
> 3000	CS(=O)(=O)NC(=O)c1ccc(OCc2cccc(C#N)c2)c(Cl)c1 [Example 80, 3-chloro-4-[(3-cyanobenzyl)oxy]-N-(methylsulfonyl)benzamide]
5500	COc1cccc(COc2ccc(C(=O)NS(C)(=O)=O)cc2)c1 [Example 82, 4-[(3-methoxybenzyl)oxy]-N-(methylsulfonyl)benzamide]
6500	CS(=O)(=O)NC(=O)c1cc(Cl)c(OCc2ccc(Cl)cc2)cc1F [Example 84, 5-chloro-4-[(4-chlorobenzyl)oxy]-2-fluoro-N-(methylsulfonyl)benzamide]
450	CS(=O)(=O)NC(=O)c1ccc(OCc2ccc(-c3ccccc3)cc2)cc1 [Example 85, 4-(biphenyl-4-ylmethoxy)-N-(methylsulfonyl)benzamide]
6100	CS(=O)(=O)NC(=O)c1ccc(OCc2ccc(Cl)cc2)cc1 [Example 88, 4-[(4-chlorobenzyl)oxy]-N-(methylsulfonyl)benzamide]
> 3000	COc1ccc(COc2ccc(C(=O)NS(C)(=O)=O)cc2)cc1 [Example 89, 4-[(4-methoxybenzyl)oxy]-N-(methylsulfonyl)benzamide]
> 3000	CS(=O)(=O)NC(=O)c1ccc(OCc2ccc(-n3cccn3)cc2)c(Cl)c1 [Example 90, 3-chloro-N-(methylsulfonyl)-4-{[4-(1H-pyrazol-1-yl)benzyl]oxy}benzamide]
3500	CS(=O)(=O)NC(=O)c1ccc(OCc2cccc(Cl)c2)cc1 [Example 91, 4-[(3-chlorobenzyl)oxy]-N-(methylsulfonyl)benzamide]
> 3000	CS(=O)(=O)NC(=O)c1ccc(OCc2ccccc2-c2ccccc2)c(C#N)c1 [Example 93, 4-(biphenyl-2-ylmethoxy)-3-cyano-N-(methylsulfonyl)benzamide]
4300	CS(=O)(=O)NC(=O)c1ccc(OCc2ccccc2-c2ccccc2)cc1 [Example 94, 4-(biphenyl-2-ylmethoxy)-N-(methylsulfonyl)benzamide]
1500	COc1ccc(OCc2cc(F)c(C(=O)NS(C)(=O)=O)cc2F)cc1F [Example 97, 2,5-difluoro-4-[(3-fluoro-4-methoxyphenoxy)methyl]-N-(methylsulfonyl)benzamide]
